Read-outs that look alike come from different tables or passages of the source.
Tests used:
[1] = tested on: blood sugar (hypoglycemic effect); assay: Test 1-D: intravenous rabbit bioassay; assay type: in vivo, white rabbits; conditions: rabbits, 4 I.U. i.v.; after completion of the infusion
Procedure: FIG. 8 is a comparison of Tong-Shin insulin, the oral insulin of Example 1, and Novo insulin, pursuant to the test of Test 1-D.
In this test, the oral insulin composition of Example 1 was compared with Novo monocomponent porcine crystalline insulin and a regular injectable insulin-40 (Tong-Shin Pharmaceutical Co.) in intravenous rabbit bioassays. Three white rabbits, each weighing 1.8 Kg were fasted overnight and were treated with an intravenous infusion over ten minutes of 4 I.U. of either the Novo insulin, the Tong-Shin insulin-40, or an emulsion comprising the oral insulin composition of Example 1. A venous blood sample was collected from the ear vein of each of the rabbits at 30 minutes prior to the insulin infusion and at times 0, 15, 30, 45, 60, 75, 90 and 105 minutes after completion of the infusions.

[2] = tested on: hypoglycemic response; conditions: oral, 150 IU/Kg, rabbits; cited from earlier work
[3] = tested on: venous serum sugar level; assay: Test 1-C: bioassay in pigs, serum sugar level; assay type: in vivo, Yorkshire pigs; conditions: 8 I.U. intravenously
Text: FIG. 7 is a comparison of the venous serum sugar levels of two pigs, one given the composition of Example 1 and one given Actrapid. The venous serum sugar level of the pig given Example 1 is denoted by "o" and the venous serum sugar level of the pig given actrapid is denoted by "x". The x axis is in minutes and the y axis is in millimoles of serum glucose.
In this test, the oral insulin composition of Example 1 was compared with Actripid intravenous insulin solution (Novo) in a bioassay. Two Yorkshire pigs were fasted overnight and one pig was given 8 I.U. of the Actripid insulin intravenously. The other pig was given an intravenous infusion over a period of 15 minutes of 8 I.U. of the oral insulin composition of Example 1 that had been dissolved into 50 ml of water. Blood was taken from the pair of pigs and the serum sugar levels were measured. […] (See FIG. 7.)

[4] = tested on: plasma glucose level; assay: Test 12B: plasma glucose in a female dog; assay type: in vivo
Procedure: Hypoglycemic action of the formulation was compared to that of intra-duodenally administered regular injectable insulin (novo actrapid insulin, 1.0 IU per Kg) and of intravenously administered regular injectable insulin (novo actrapid insulin, 0.5 IU per Kg). After infusion of 1.26 IU of regular injectable insulin, intravenously, the plasma glucose level dropped from […] within 20 minutes and returned to […] within 3 hours. Then, 6 IU of regular injectable insulin was intra-duodenally given.

[5] = tested on: blood glucose levels; assay: Test 1-E: oral insulin in healthy male volunteers, blood glucose; assay type: in vivo, human
Procedure: In this test, the oral insulin composition of Example 1 was administered orally to two healthy male volunteers.
Two healthy volunteers, weighing 52 and 54 Kg participated in the study. Each subject received a 16 I.U. dose of the oral insulin composition of Example 1 during the study. Along with the oral insulin composition of Example 1, each participant received two capsules of lipolytic enzymes. Each capsule consisted of:
The enzyme capsules were made as follows: Pancreatic Lipase was coated with 0.1 to 0.3 microns thick coating of hydroxypropylecellulose and enteric coated with the coating of Example 1. Amylase and Protease were then added. The resultant composition was then coated with 0.1 micron of hydroxypropylcellulose. Bile Salts that had been coated with 0.1 micron of hydroxypropylcellulose was then added to a hard gel capsule with the Pancreatic Lipase resultant product.
At 7:30 am on the day of the trial, each participant consumed a standard breakfast consisting of two fried eggs, two strips of bacon, two slices of toasted dark bread, a tablespoon of butter, and cup of black coffee. The insulin composition of Example 1 was administered orally at 10:00 am to both subjects. The oral insulin was administered in capsules comprising 16 I.U. of Novo crystalline monocomponent porcine insulin. At 12:00 both subjects consumed a standard lunch consisting of 180 gm of beef steak, a tossed green salad with oil and vinegar dressing, a piece of dark bread, and black coffee.
Blood samples were collected from the subject at 10:00, 13:00 and 16:00 and were analyzed for blood glucose levels.
One week later, both volunteers had the standard breakfast (i.e., the breakfast given on the first day of the test) at the same time. At 10:00 both subjects received a subcutaneous injection of 16 I.U. of Tong-Shin regular injectable insulin-40. At approximately 10:30 both subjects began to experience hypoglycemic reactions which lasted for roughly two hours. Both subjects were served pure orange juice at 11:20 and were served the standard lunch at 12:00.

[6] = tested on: serum glucose; assay: Test 5-A: hypoglycemic effects (serum glucose); assay type: in vivo, human
Procedure: (§1) The bioavailability of insulin and its corresponding hypoglycemic effects of Example 4 and Example 5 oral insulin preparations were studied in a group of IDDM and NIDDM patients. Example 4 oral insulin was also studied in two normal, healthy male volunteers. In all of the tests set forth in 5-A, the subjects received with each dose of oral insulin two capsules of the lipolytic enzyme of Test 1-E.
(§2) At least 12 or 24 hours prior to the study the patients normal anti-diabetic therapeutic agents were withheld from the patients. After overnight fasting and fasting throughout the entire period of the study, Example 4 or Example 5 oral insulin preparations were orally administered.
(§3) A venous sampling catheter was placed into a vein, usually at the antecubital vein, and blood samples were drawn at time 0, 1.0, 1.5, 2.0, 2.5, 3.0, 4.0 and/or 5.0 hours after the drug administration. Serum glucose was measured on a Gilfordx400, and serum insulin was analyzed by using an Immuno-Enzymatic o-Phenylendiamine (OPD) method and Insulin-B test kit of WAKO (Japan). All measurements were made in duplicate.
(§4) As stated above, two healthy male volunteers […] participated in the study. One subject received the oral insulin of Example 4 twice over a two week period, once each week, receiving 0.20 and 0.27 IU per Kg of the oral insulin. […] Serum insulin level was peaked to 20 micro-U per ml occurring at 1.5 hours after the drug ingestion on both occasions.
The second volunteer received 10 IU of regular injectable insulin-40 (of Tong Shin Pharm. Co. of Seoul, Korea), subcutaneously. […] They were given a glass of fresh orange juice and serum glucose level rose to about 115 mg/dl within one hour.
(§5) Five IDDM Patients have completed all three phases of the study of test 5-A: i.e., they received 10 IU, subcutaneous injection of regular injectable insulin-40 (of Tong Shin Pharm Co. of Seoul, Korea) the first week; they received one single oral dosing of Example 4 (0.544 IU/kg average dose) one week later; and the next week they received 9 consecutive dosings of Example 4 (average dose was 0.544 IU/kg), given at 6-hour intervals.
The Oral Insulin Example 4 was given to a total of 8 IDDM patients (10 trials) (two repeated the study) and 7 NIDDM patients (11 trials) (four patients repeated the study).
Seven IDDM Patients completed the study after oral administration of a single dose of the Example 5 oral insulin preparation.

[7] = Test 5-A: bioavailability of insulin (serum insulin); assay type: in vivo, human; conditions: Regular Insulin 0.172 IU/Kg s.c.; Example 4 0.544 IU/Kg oral 1st dose; Example 5 0.649 IU/Kg oral 1st, fasting
Procedure: as §1, §2, §3, §4, §5

[8] = tested on: serum glucose levels; assay: Test 8: serum glucose in IDDM patients; assay type: in vivo, human; conditions: Regular Insulin 0.172 IU/Kg s.c., Oral Insulin 0.649 IU/Kg
Text: Seven Insulin-Dependent Diabetics (IDDM) patients, 6 males and one person, between 24 to 47 years old (average 34.4) weighing between 48 and 68 Kg each (average 58.6 kg) took between 32 to 48 (average 42.6) International Units of Oral Insulin Formulation of Example 7, orally, after fasting overnight and fasting throughout the study.
(§6) Each subject in Test 8 was given two capsules of the lipolytic enzyme composition set forth in Test 1-E with each dose of oral insulin.

[9] = Test 8: bioavailability of insulin (insulin levels in serum); assay type: in vivo, human; conditions: Reg. Insulin 0.172 IU/Kg s.c.; Oral Insulin 0.630 IU/Kg; IDDM
Procedure: In two IDDM patients, bioavailability of insulin (insulin levels in serum) was measured after oral administration of Oral Insulin Formulation of Example 7 (0.63 I.U./Kg).
Compared to 0.172 IU/Kg of Regular Insulin, subcutaneous injection in 5 IDDM patients, the `pharmacokinetic and bioavailability` of insulin are as follows:
as §6

[10] = tested on: hypoglycemic response; conditions: aerosol, 2.5 U/Kg, rabbits; cited from earlier work
[11] = buccal, cocoa fat base and surfactant, dogs; cited from earlier work
[12] = intra-nasal, dogs; cited from earlier work
[13] = tested on: hypoglycemic effect; conditions: oral with isopropylfruorophosphate and indole-3-acetate, rats; cited from earlier work
[14] = tested on: hypoglycemic response; conditions: oral with pancreas inactivating agents; cited from earlier work
[15] = tested on: blood sugar level; conditions: oral with surfactants; cited from earlier work
[16] = tested on: hypoglycemic effect; conditions: water/oil/water emulsion, rats; cited from earlier work
[17] = cited from earlier work
[18] = tested on: hypoglycemic effect; conditions: other emulsion systems with fat soluble vitamins, dogs; cited from earlier work
[19] = Regular Insulin 0.172 IU/Kg s.c., Example 4 0.544 IU/Kg oral 1st dose, Example 5 0.649 IU/Kg oral 1st, fasting

With “Novo insulin: Novo monocomponent porcine crystalline insulin” the “time of peak hypoglycemic effect” value [1] was at most 30 min.
In the case of beta-Naphthyl-azo-Polystearryle-insulin, the hypoglycemic response [2] is listed as “induced a hypoglycemic response”.
For “Actripid insulin: intravenous insulin solution (Novo)”, the “decrease of venous serum sugar level, compared between the two insulins” value [3] was “decreased by roughly an equal degree”, the plasma glucose level before infusion ([4]; 1.26 IU intravenous) was 102 mg/dL and the plasma glucose level, return ([4]; 1.26 IU intravenous, within 3 hours) was 100 mg/dL. For the same substance, the “change of blood glucose level” value ([4]; 6 IU intra-duodenal, over three hours) was “No changes in the blood glucose levels”.
In the case of Regular Insulin, the “time of peak hypoglycemic effect” value [1] is reported as 60 min, the “duration of hypoglycemic reactions” value ([5]; 16 I.U. subcutaneous) is reported as “roughly two” and the “time of peak hypoglycemic effect” value ([5]; 16 I.U. subcutaneous) is reported as “roughly 3 hours”. For the same substance, the “blood glucose / effect after six hours” value ([5]; 16 I.U., 6 hours) was “the effect disappeared by 6 hours after administration”, the “CO, base value of Serum Glucose” value [6, 19] was 271 mg/dL and the “Cmin, minimum value of glucose” value [6, 19] was 94.5 mg/dL. The “T100, time to reach 100 mg/dl of serum glucose” value [6, 19] was 2.1, the “TC-min, time of observing the minimum glucose level” value [6, 19] was 4.0 and the “dC/dT, rate of reduction in Serum Glucose levels” value [6, 19] was 59.16. The “time of insulin-induced shock symptoms” value ([6]; healthy volunteer, 10 IU subcutaneous) was 72 min, the “serum glucose at time of shock symptoms” value ([6]; healthy volunteer, 10 IU subcutaneous, 72 minutes) was 47 mg/dL and the “serum glucose after orange juice” value ([6]; healthy volunteer, 10 IU subcutaneous, within one hour of orange juice) was “about 115 mg/dl”. The “IO, base value of Serum Insulin” value [7] was 8.0 micro-U/ml, the “Imax, maximum value of insulin” value [7] was 20.3 micro-U/ml and the “TI-O, time to reach the base value of Serum Insulin level” value [7] was 4.8. The “TI-max, time to reach the maximum Serum insulin level” value [7] was 1.5, the “dI/dT, rate of rise of serum insulin level” value [7] was 38.29 and the “CO (printed 00), base value of glucose” value [8] was 271 Mg/dl. For the same substance, the “Cmin, minimum value of glucose observed” value [8] was 94.5 Mg/dl, the “T100, time to reach 100 mg/dl” value [8] was 2.1 and the “TC-min, time of observing the minimum glucose level” value [8] was 4.0. The “dC/dT, rate of hypoglycemic action” value [8] was 59.16, the “IO, base value of insulin” value [9] was 8.0 micro-U/ml and the “Imax, maximum value of serum insulin” value [9] was 20.3 micro-U/ml. For the same substance, the “TI-O, time to reach the base value of serum insulin” value [9] was 4.8, the “TI-max, time of observing the maximum value of serum insulin” value [9] was 1.5 and the “dI/dt, rate of rise of serum insulin (absorption rate)” value [9] was 38.29.
In the case of insulin, the hypoglycemic response [10] is given as “induced hypoglycemic response”, the bioavailability [11] is given as “only poor bioavailability” and the bioavailability [12] is given as “high bioavailability”. For the same substance, the hypoglycemic effect [13] was “induce a hypoglycemic effect”, the “bioavailability equivalent of hypoglycemic response” value [14] was 3% and the “intravenous dose with effect on blood sugar equivalent to 35 units orally” value [15] was 4 units. For the same substance, the “intramuscular dose with effect equivalent to 250 IU/Kg orally” value [16] was 10 IU/Kg, the “bioactivity after oral administration” value [17] was “low bioactivities” and the hypoglycemic effects [18] was “mild and not dose responsive”.

Reference: patent US4849227A, “Pharmaceutical compositions” (Eurasiam Laboratories, Inc., priority 1987, dated 1989)
